# Laboratory results taken from patent publication US12178825B2, “Method and compositions for forming a copper-containing complex and uses thereof” (COLD SPRING HARBOR LABORATORY, priority 2017, dated 2024).
# “Also recorded” adds a separate entry of the source. Read-outs that look alike come from different tables or passages of the source.
# Assays:
# PTP1B1-394 = molecular target: T1, PTP1B1-394 (Homo sapiens, UniProt P18031); assay: Gel filtration for aggregation of PTP1B; conditions: gel filtration elution profile
# T1 construct: elution profile of PTP1B1-394 in the absence (circles) and presence (triangles) of DPM-1001; His-tag; made in house; host or cells: Escherichia coli BL21 (DE3)-RIL
# Protocol: PTP1B (5 μM) was incubated with 10 μM MSI1436 in a final volume of 200 μl buffer (50 mM HEPES, pH 7.0, 100 mM NaCl, 0.2 mM EDTA, 2 mM DTT) at 4° C. The reaction mixture was then subjected to gel filtration on a Superdex 200 column (HR30/10; Pharmacia Biotech Inc.). Prior to loading the MSI1436-saturated protein sample, the column was equilibrated with 50 mM HEPES, pH 7.0, 100 mM NaCl, 0.2 mM EDTA and 2 mM DTT. The void volume (Vo) and total volume (Vt) were measured using blue dextran and Coomassie blue dye, respectively. Fractions of 0.5 ml were collected, and the protein concentration in each sample was determined by Bradford assay or by recording the UV absorption spectrum at 280 nm.
# PTP1B-L192A/S372P = PTP1B-L192A/S372P (Homo sapiens, UniProt P18031, L192A/S372P); assay: Phosphatase assay with MSI-1436-resistant mutant; assay type: biochemical; conditions: read-out: IC50 against PTP1B-L192A/S372P
# Description: (§1) All common reagents were obtained from Thermo Fisher Scientific (Waltham, MA) or Sigma-Aldrich (St. Louis, MO). Difluoro-4-methylumbelliferyl phosphate (DiFMUP) was obtained from Invitrogen (cat #D22065). Solid black 384-well plates (cat #3573) for phosphatase assays were from Corning Incorporated (Corning, NY).
# [1] = system: ATP7B-knockdown HepG2 cells; assay: Copper-induced toxicity, MTT cell survival; assay type: cell-based; conditions: DPM-1001 2 μM; ATP7B-knockdown HepG2
# Protocol: HepG2 cells purchased from ATCC were cultured in RPMI media containing 10% FBS, 5% CO2 at 37 C. Control (AG09319) and Wilson's disease patient-derived fibroblasts (GM00032, GM00033, GM05257, GM12158, GM05798 and GM11778) were obtained from Coriell Biorepository and cultured in DMEM, 10% FBS, 5% CO2 at 37° C.
# For cell survival assays, 10,000 cells were seeded in a 96 well plate and cultured until fully confluent (90%). To these cells, ATP7B siRNAs or scrambled siRNA (negative control) purchased from Qiagen and Santa Cruz Biotechnology were transfected. Lipofectamine RNAiMAX reagent (Thermofischer) and siRNAs were diluted into a final volume of 100 μl in Opti-MEM (Gibco). The mixture was incubated at room temperature for 30 min, following which 800 μl of Opti-MEM was added to the mixture. The above transfection solution was overlaid onto cells at a final concentration of 5 nM siRNA. Transfection of HepG2 cells with scrambled siRNA served as negative control. Twelve hours after the transfection, complete media was added to each well. Following which, knockdown efficiency was checked (24 hours later) and cells were exposed to varying concentration of copper (0-1 mM) for 12 h and cell viability was determined using the MTT assay as previously described (37). […]
# MDA-MB-231 cells = assay: MDA-MB-231 orthotopic xenograft; assay type: in vivo, SCID-beige mice; conditions: mice with TNBC xenograft, 5 mg/kg intraperitoneally every day
# Protocol: MDA-MB-231 cells (2×10^6) were injected orthotopically into mammary fat pads of SCID-beige mice (Tectonic lab) in 15 μl of a 1:1 mixture with DMEM and growth factor-reduced Matrigel (BD Biosciences). The animals were randomly assigned to three groups to receive saline (control), DPM-1001 (5 mg/kg) or DPM-1003 (5 mg/kg) intraperitoneally everyday once the tumors reached about 200 mm^3. Tumor growth was monitored every third day and volume in mm^3 was measured three times weekly by palpation using the formula: volume=width^2×length/2. Once the tumor volume reached above 500 mm^3 in saline treated mice, the study was terminated. Tumors from all mice were removed for biochemical analysis.
# PTP1B1-405 = molecular target: T2, PTP1B1-405 (Homo sapiens, UniProt P18031); assay: PTP1B phosphatase activity assay, DiFMUP substrate, long form; assay type: biochemical
# T2 construct: PTP1B1-405 (the long form of PTP1B which contains the extended C-terminal segment); made in house; host or cells: Escherichia coli BL21 (DE3)-RIL
# T2 sequence (P18031 1-405): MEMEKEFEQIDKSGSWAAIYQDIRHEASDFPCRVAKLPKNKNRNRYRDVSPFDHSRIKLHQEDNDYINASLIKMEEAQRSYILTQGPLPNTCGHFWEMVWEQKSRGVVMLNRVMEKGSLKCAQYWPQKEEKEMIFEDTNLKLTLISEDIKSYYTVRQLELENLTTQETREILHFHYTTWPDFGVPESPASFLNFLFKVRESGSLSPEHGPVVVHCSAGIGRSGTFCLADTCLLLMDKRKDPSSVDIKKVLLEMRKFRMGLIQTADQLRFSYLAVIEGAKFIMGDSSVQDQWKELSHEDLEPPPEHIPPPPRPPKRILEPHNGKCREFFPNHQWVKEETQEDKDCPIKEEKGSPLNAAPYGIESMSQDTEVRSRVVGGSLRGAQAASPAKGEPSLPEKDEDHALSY
# Protocol: as §1
# Wild-type PTP1B containing a His-tag was expressed in Escherichia coli BL21 (DE3)-RIL using LB. Cells were resuspended in lysis buffer (50 mM Hepes pH 7.2, 150 mM NaCl, 10 mM imidazole, 2 mM TCEP) with cOmplete EDTA-free Protease Inhibitor Cocktail (Roche), and then lysed using a sonicator at 4° C. Lysates were clarified by centrifugation. Initial protein purification was by gravity flow, nickel column chromatography. Protein was used immediately or stored at −80° C. in 50 mM HEPES pH 7.4, 100 mM NaCl, 2 mM dithiothreitol and 25% glycerol.
# JAK2 = assay: Leptin signaling in hypothalamus of treated mice; assay type: in vivo; conditions: leptin-induced
# Protocol: Technology (JAK2, catalog 3230, clone D2E12; p-T308 AKT (catalog 13038, clone D25E6); AKT (catalog 4691, clone C67E7) and Sigma-Aldrich (actin, catalog A2228, clone AC-74).
# All protocols were approved by the Institutional Animal Use and Care Committee of Cold Spring Harbor laboratory. 10 week-old male mice fed chow diet or high-fat diet (D12492) were acclimatized for 10 days under standard conditions before experiments. Mice were injected intraperitoneally (i.p.) once daily with vehicle, 5 mg/kg of DPM-1001 intraperitoneally or orally for 50 days. Mice were euthanized after 6 h of fasting, and serum samples were collected to measure the metabolic parameters and tissue samples were collected for studying changes in signaling.
# Chain of PTP1B-L192A/S372P (P18031 whole entry L192A/S372P): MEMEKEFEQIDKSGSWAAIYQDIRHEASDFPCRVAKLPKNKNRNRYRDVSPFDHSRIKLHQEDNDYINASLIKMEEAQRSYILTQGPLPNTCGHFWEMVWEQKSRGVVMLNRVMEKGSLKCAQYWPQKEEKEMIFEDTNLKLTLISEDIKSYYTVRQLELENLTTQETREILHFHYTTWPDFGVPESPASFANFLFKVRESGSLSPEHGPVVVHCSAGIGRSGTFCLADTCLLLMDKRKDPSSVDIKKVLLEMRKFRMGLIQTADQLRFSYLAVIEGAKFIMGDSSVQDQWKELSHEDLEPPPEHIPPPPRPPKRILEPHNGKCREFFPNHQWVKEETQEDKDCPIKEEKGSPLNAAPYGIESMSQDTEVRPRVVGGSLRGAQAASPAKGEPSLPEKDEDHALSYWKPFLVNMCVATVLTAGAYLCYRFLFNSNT
compound,measurement,setting,value
COC(=O)CCC(C)C1CCC2C3C(O)CC4CC(NCCCCNCc5ccccn5)CCC4(C)C3CCC12C (stereo not drawn) [DPM-1001],aggregation of PTP1B,PTP1B1-394,did not induce aggregation
same,IC50,PTP1B-L192A/S372P,1000 nM
same,protection from copper-induced cell death,[1],able to rescue cells from copper-induced cell death
same,tumor volume / tumor size,MDA-MB-231 cells,reduced tumor volume; also recorded: inhibition of tumor size; also recorded: shrank the size of such tumors
same,IC50,"PTP1B1-405; after a 30 minute pre-incubation, read-out: IC50 for PTP1B1-405",100 nM
same,IC50,"PTP1B1-405; compound pre-incubated with PTP1B, read-out: IC50, inhibition of PTP1B",100 nM
same,reversibility of inhibition of PTP1B1-405,"PTP1B1-405; enzyme-inhibitor complex diluted, activity recovery monitored",remained inactive over an extended period of time
same,IC50,"PTP1B1-405; long form PTP1B1-405, DiFMUP substrate (FIG. 1), read-out: IC50, inhibition of the phosphatase",100 nM
same,IC50,"PTP1B1-405; no pre-incubation, read-out: IC50 for PTP1B1-405",600 nM
same,time dependence of inhibition of PTP1B1-405,PTP1B1-405; presence of catalase,no obvious time dependence of inhibition
same,time dependence of inhibition of PTP1B1-405,PTP1B1-405; presence or absence of PRX1,time-dependent increase in potency
same,phosphorylation of JAK2,JAK2,increased leptin-induced JAK2 phosphorylation; also recorded: enhanced phosphorylation of JAK2
